Experimental data reported in patent publication US11635379B2, “Portable wide field fluorimeter systems” (priority 2017, dated 2023).

Tests used:
S. Aureus = target: T1, S. Aureus (Staphylococcus aureus, UniProt P00807); test: Antibiotic susceptibility testing by β-LEAF fluorescence in microfluidic device with portable fluorimeter; assay type: cell-based
T1 construct: endogenous in cells
Protocol: In another experiment, fluorometric assay techniques were examined using a microfluidic device (e.g., the microfluidic device 102) and fluorescence images were collected using a portable wide field fluorimeter similar to the system 700 depicted in FIGS. 7A-D. In this experiment, the detection reagent was a 20 μM β-LEAF Bodipy-FL probe solution (2×stock) that was prepared in 40% DMSO in PBS, and an antibiotic solution was a […] penicillin G solution (4×stock) that was prepared by dissolving the antibiotic powder in PBS. Two different types of liquid samples were prepared. A first liquid sample (which included the antibiotic solution) was prepared by combining the 25 μl bacterial suspension, 50 μl of probe 2×stock solution, and 25 μl antibiotic 4×stock solution. […]
Data acquisition involved collecting a fluorescent reading by the camera every 3 seconds. […] Fluorescence was measured in a machine specific standard unit. […]
To analyze image data, a region of interest was selected over an area of bacteria capture corresponding to a chamber of the microfluidic device was the liquid samples were collected. Fluorescence data was extracted in a green channel. […]
The experiment was performed using two liquid samples that were introduced into a microfluidic device and monitored for fluorescence over a 10-minute time period. […]

[1] = target: T2, β-lactamase producing strain (B-lac(+)) (Staphylococcus aureus, UniProt P00807); assay type: cell-based; conditions: B-lac(+) S. aureus, β-LEAF with vs without cefazolin, 60-minute time course, 37° C.
T2 construct: a known β-lactamase producing strain (B-lac(+)); host or cells: S. aureus ATCC control strain, β-lactamase producing (B-lac(+))
T2 sequence (P00807 25-281): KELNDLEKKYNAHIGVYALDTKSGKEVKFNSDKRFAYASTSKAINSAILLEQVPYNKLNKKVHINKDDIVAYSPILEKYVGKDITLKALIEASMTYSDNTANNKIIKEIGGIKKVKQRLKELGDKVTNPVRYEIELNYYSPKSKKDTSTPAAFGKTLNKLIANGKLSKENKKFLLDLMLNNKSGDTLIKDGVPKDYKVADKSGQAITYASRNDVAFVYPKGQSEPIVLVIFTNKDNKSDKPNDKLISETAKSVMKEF
Excerpt: Consequently, the fluorophores are unable to emit fluorescence due to ground state interactions between each other. However, after probe cleavage by β-lactamase, the fluorophores diffuse away from each other, are no longer quenched, and thus regain their fluorescent properties. […] If the assay is repeated in the presence of a cleavable antibiotic that competes with the β-LEAF for β-lactamase cleavage, the rate of β-LEAF cleavage will decrease, resulting in no fluorescence increase.
To encapsulate the data, the suppression of fluorescence change (ΔFs) is defined as (ΔFBL−ΔFBL+antibiotic)/ΔFBL, where ΔFBL and ΔFBL+antibiotic is the fluorescence rate of change of the β-lactamase only and β-lactamase and antibiotic conditions, respectively. […]
Time course assays were carried out with each of the two liquid samples by monitoring β-LEAF cleavage by measuring fluorescence for 60 minutes, at 1 minute intervals using a Spectramax® M5 Plate Reader (Molecular Devices). […] Fluorescence was measured in a machine specific standard unit.
In this example, β-LEAF assays were performed with the two ATCC S. aureus control bacterial strains, a known β-lactamase producing strain (B-lac(+)) and a known β-lactamase non-producing strain (B-lac(−)). […] Four test solutions were prepared and examined for time-course fluorescence intensity changes: […]

T1 sequence (P00807 25-281): as above

SMILES	change of fluorescence intensity over the ten-minute time period (S. Aureus; 50 μl sample, 2.5e6 CFU/ml S. Aureus, fluorescent probe plus Penicillin G)	susceptibility of the antibiotic to cleavage by the bacteria (S. Aureus; S. Aureus, competition with fluorescent probe)	suppression of fluorescence change (ΔFs) [1]
CC1(C)S[C@@H]2[C@H](NC(=O)Cc3ccccc3)C(=O)N2[C@H]1C(=O)O [Penicillin G]	did not change significantly	vulnerable to cleaving	–
Cc1nnc(SCC2=C(C(=O)O)N3C(=O)[C@@H](NC(=O)Cn4cnnn4)[C@H]3SC2)s1 [cefazolin]	–	–	~1
